Measured values taken from article PMC340942, “Engineered Biosynthesis of Regioselectively Modified Aromatic Polyketides Using Bimodular Polyketide Synthases” (PLoS Biology, 2004).
Converted amounts (≈) assume the structure as drawn.

Tests used:
[1] = system: human mammary adenocarcinoma MCF-7 cells; design: method as in Hori et al. 1993; conditions: ref Hori et al. 1993; cited from earlier work
[2] = target: T1, glucose-6-phosphate translocase (Rattus norvegicus, UniProt F7EWB7); assay: G6Pase activity assay in intact male rat liver microsomes (colorimetric inorganic phosphate); type: biochemical; conditions: for Inhibition of G6Pase activity of the microsome (Figure 7B): 1 mM glucose-6-phosphate; for Inhibition of G6Pase activity: 10–50 μM range
T1 construct: using intact male rat liver microsomes; tissue BD Gentest (Becton Dickinson); host or cells: male Sprague Dawley rat liver microsomes
T1 sequence (F7EWB7 1-429): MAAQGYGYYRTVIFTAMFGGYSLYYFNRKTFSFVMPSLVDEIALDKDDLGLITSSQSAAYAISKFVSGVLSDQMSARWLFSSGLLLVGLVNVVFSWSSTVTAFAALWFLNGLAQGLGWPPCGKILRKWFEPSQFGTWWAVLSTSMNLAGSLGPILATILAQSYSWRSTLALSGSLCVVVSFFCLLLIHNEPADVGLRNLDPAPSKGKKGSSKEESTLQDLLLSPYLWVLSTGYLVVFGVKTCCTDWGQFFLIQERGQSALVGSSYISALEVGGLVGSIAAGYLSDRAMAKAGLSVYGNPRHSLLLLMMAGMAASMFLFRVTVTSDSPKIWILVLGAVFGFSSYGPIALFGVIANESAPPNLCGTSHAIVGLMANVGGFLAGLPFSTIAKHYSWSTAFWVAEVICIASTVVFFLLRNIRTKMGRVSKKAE
Procedure: Recently, the natural product mumbaistatin (Figure 7A) was identified as an extremely potent inhibitor (IC50 = 5 nM) of the glucose-6-phosphate translocase enzyme complex, an attractive target for the treatment of Type II diabetes ([Vertesy et al. 2001]). The core of mumbaistatin consists of an anthraquinone moiety that is related to several engineered compounds discussed in this report. For example, the carboxylic acid at position C-1 and the reduced C-9 are identical to those present in compounds DMAC, 8, and 9. We tested the inhibitory activities of some of these polyketides against glucose-6-phosphate translocase using intact male rat liver microsomes.
The integrity of the microsomes was first verified by comparing the glucose-6-phosphatase (G6Pase) activity in the presence of either glucose-6-phosphate or mannose-6-phosphate.
Male rat liver microsome (Sprague Dawley) was purchased from BD Gentest^TM (Becton Dickinson, Franklin Lakes, New Jersey, United States). Aliquots (100 μl, 2 mg/ml) in 0.25 M sucrose were stored at –80°C. Compound stock solutions were prepared in 95% ethanol and diluted with DMSO. Glucose-6-phosphate and mannose-6-phosphate were purchased from Sigma (St. Louis, Missouri, United States).
The integrity of microsomes and G6Pase activity was measured based on the colorimetric reaction of inorganic phosphate as previously reported ([Arion 1989]). The enzyme reaction was initiated by adding 3 μl of microsome to the reaction mixture, which contained 51 μl of assay buffer (50 mM HEPES, 100 mM KCl, 2.5 mM EDTA, 2.5 mM MgCl2, and 1 mM DTT at pH 7.2), 3 μl of glucose-6-phosphate (final concentration, 1 mM), and 3 μl of inhibitor sample in DMSO. The reaction mixture was incubated at room temperature, and 13 μl of reaction mixture was taken every 10 min and quenched with 117 μl of working solution (6:2:1 mixture of 0.42% ammonium molybdate tetrahydrate in 1N H2SO4, 10% SDS in water, and 10% ascorbic acid in water). The blue reduced phosphomolybdate complex is formed after incubation at 50°C for 20 min. The absorbance was measured at 820 nm.

[3] = system: human mammary adenocarcinoma MCF-7 cells; assay: Cytotoxicity against MCF-7 cells (colorimetric MTT assay); type: cell-based; conditions: MCF7, 120 h, IC50 recorded after 5 d of drug addition, read-out: IC50, cytotoxic activity against MCF-7 cells
Procedure: As described above, the biosynthetic engineering methods reported here have yielded practical routes for the production of several new as well as known anthraquinone compounds. Given the track record of this family of natural products as pharmacologically active molecules, compounds 3, 4, 9, and DMAC were assayed for cytotoxic activities against human mammary adenocarcinoma MCF-7 cells. Apoptosis was observed after 24 h of drug treatment, and IC50 values were recorded after 5 d of drug addition. […] Thus inserting the hydroxyl group at C-9 results in a 10-fold increase in cytotoxic activity.
The studies were performed as described by Hori et al (1993). The cells were maintained at 37°C and growth was measured with the colorimetric MTT assay after each day. The IC50 values were measured after 5 d.

[4] = Stability of purified compounds at room temperature; type: physicochemical
[5] = target: T1, glucose-6-phosphate translocase; conditions: rat liver microsomes; reference inhibitor, source not given; read-out: IC50, chlorogenic acid used as reference in the G6Pase assay; cited from earlier work
[6] = target: glucose-6-phosphate translocase enzyme complex; design: method as in Vertesy et al. 2001; conditions: ref Vertesy et al. 2001; cited from earlier work

| Structure (SMILES) | Inhibition of G6Pase activity of the microsome (Figure 7B) [2] | Inhibition of G6Pase activity [2] | IC50 [3] [µg/mL] | further results |
| --- | --- | --- | --- | --- |
| CC(C)CCc1cc(O)cc2c1C(=O)c1c(O)cc(O)cc1C2=O [Compound 6, R1128c] | – | – | – | IC50, cytotoxic activity against MCF-7 cells (natural products) [1]: 6.2 µg/mL (≈ 19 µM) |
| CCCCc1c(C(=O)O)c(O)cc2c1C(=O)c1c(O)cc(O)cc1C2=O [Compound 3] | Dose-dependent inhibition | Dose-dependent inhibition | 3.4 (≈ 9.54 µM) | – |
| Cc1c(C(=O)O)c(O)cc2c1C(=O)c1c(O)cccc1C2=O [DMAC, 3,8-dihydroxy-methylanthraquinone carboxylic acid, reference compound] | No inhibition | not | 26.9 (≈ 90.2 µM) | – |
| Cc1c(C(=O)O)c(O)cc2c1C(=O)c1c(O)cc(O)cc1C2=O [Compound 7, 3,6,8-trihydroxy-1-methylanthraquinone-2-carboxylic acid] | No inhibition | not | – | – |
| CC(C)CCc1c(C(=O)O)c(O)cc2c1C(=O)c1c(O)cccc1C2=O [Compound 9] | Dose-dependent inhibition | Dose-dependent inhibition | 21.7 (≈ 61.2 µM) | – |
| CCCCc1cc(O)cc2c1C(=O)c1c(O)cc(O)cc1C2=O [Compound 5, R1128b] | – | – | – | IC50, cytotoxic activity against MCF-7 cells (natural products) [1]: 9.5 µg/mL (≈ 30.4 µM) |
| CCCCC1=C(c2cc(O)cc(=O)o2)C(=O)CC(O)C1 (stereo not shown) [Compound 1] | – | – | – | Stability of the purified compound [4]: slowly dehydrate |
| O=C(/C=C/c1ccc(O)c(O)c1)O[C@@H]1C[C@](O)(C(=O)O)C[C@@H](O)[C@H]1O [chlorogenic acid] | – | – | – | IC50 [5]: 260 µM |
| O=C(O)CC(O)CCC(=O)c1cccc(O)c1C(=O)c1c(C(=O)O)c(O)cc2c1C(=O)c1c(O)cccc1C2=O (stereo not shown) [mumbaistatin] | – | – | – | IC50 [6]: 0.005 µM |
| CC(C)CCc1c(C(=O)O)c(O)cc2c1C(=O)c1c(O)cc(O)cc1C2=O [Compound 4] | Dose-dependent inhibition | Dose-dependent inhibition | 1.7 (≈ 4.59 µM) | – |
| CC(C)CCC1=C(c2cc(O)cc(=O)o2)C(=O)CC(O)C1 (stereo not shown) [Compound 2] | – | – | – | Stability of the purified compound [4]: slowly dehydrate |
| CCCCc1c(C(=O)O)c(O)cc2c1C(=O)c1c(O)cccc1C2=O [Compound 8] | Dose-dependent inhibition | Dose-dependent inhibition | – | – |
